Experimental data taken from ChEMBL document CHEMBL4392824, “Design, synthesis and bioevaluation of 3-oxo-6-aryl-2,3-dihydropyridazine-4-carbohydrazide derivatives as novel xanthine oxidase inhibitors” (Bioorg Med Chem, 2019).

Key:
[1] = target: T1, Xanthine dehydrogenase/oxidase (Bos taurus, UniProt P80457); experiment: Inhibition of bovine xanthine oxidase assessed as reduction in uric acid formation preincubated for 5 mins followed by xanthine addition and measured after 20 mins by spectrophotometry
T1 sequence (P80457 whole entry): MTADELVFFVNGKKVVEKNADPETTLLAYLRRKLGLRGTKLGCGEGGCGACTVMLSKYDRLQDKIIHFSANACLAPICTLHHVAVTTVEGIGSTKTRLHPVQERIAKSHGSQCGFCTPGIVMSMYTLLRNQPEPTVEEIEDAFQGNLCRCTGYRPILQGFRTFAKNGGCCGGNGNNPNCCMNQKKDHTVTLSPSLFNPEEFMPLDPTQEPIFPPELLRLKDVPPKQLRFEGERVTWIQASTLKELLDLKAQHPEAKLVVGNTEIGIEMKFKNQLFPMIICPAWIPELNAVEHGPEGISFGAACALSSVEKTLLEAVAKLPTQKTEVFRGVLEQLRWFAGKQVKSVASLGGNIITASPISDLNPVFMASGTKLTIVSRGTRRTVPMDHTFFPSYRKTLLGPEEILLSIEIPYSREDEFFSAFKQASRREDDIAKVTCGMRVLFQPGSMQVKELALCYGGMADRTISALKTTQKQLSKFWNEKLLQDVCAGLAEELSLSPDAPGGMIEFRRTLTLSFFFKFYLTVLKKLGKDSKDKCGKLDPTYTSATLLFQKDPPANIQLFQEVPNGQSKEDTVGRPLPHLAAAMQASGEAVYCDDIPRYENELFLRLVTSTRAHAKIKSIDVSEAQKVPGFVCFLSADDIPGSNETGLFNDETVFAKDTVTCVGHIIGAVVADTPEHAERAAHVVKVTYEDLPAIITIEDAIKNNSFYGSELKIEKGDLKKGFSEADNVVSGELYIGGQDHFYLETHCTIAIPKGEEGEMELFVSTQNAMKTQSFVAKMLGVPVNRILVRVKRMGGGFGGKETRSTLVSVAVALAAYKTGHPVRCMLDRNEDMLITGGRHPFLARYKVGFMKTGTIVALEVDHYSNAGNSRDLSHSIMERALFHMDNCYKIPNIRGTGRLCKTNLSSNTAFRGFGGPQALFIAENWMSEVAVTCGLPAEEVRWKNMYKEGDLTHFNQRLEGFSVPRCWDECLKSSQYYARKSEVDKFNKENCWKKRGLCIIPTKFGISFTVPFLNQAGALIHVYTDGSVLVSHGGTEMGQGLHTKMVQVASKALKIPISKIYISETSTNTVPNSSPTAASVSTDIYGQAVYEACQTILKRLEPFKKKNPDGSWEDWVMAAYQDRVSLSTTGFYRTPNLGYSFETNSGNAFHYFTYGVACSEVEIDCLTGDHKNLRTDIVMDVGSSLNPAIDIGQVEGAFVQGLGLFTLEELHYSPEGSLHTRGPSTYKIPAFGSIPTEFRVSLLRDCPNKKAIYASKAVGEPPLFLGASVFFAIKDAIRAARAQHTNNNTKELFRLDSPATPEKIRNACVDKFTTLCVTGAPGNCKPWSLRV

[2] = target: T1, Xanthine dehydrogenase/oxidase; experiment: Inhibition of bovine xanthine oxidase assessed as reduction in uric acid formation at 10 uM preincubated for 5 mins followed by xanthine addition and measured after 20 mins by spectrophotometry; details: cattle
[3] = target: T1, Xanthine dehydrogenase/oxidase; experiment: Mixed type inhibition of bovine xanthine oxidase assessed as reduction in uric acid formation at 0.5 to 2 uM preincubated for 5 mins followed by xanthine addition and measured after 20 mins by spectrophotometry based Lineweaver-Burk plot analysis; details: cattle

Row | Compound | IC50 [1] | inhibition at 10 µM [2] [%] | IC50 ([1]; read-out: IC50) [µM] | inhibition (INH) [3]
1 | CC(C)Oc1ccc(-c2cc(C(=O)O)c(=O)[nH]n2)cc1[N+](=O)[O-] | Not Active | < 50 |  | 
2 | CC(C)COc1ccc(-c2cc(C(=O)NN)c(=O)[nH]n2)cc1C#N |  |  | 2.97 | 
3 | CC(C)COc1ccc(-c2cc(C(=O)O)c(=O)[nH]n2)cc1C#N | Not Active | < 50 |  | 
4 | CCCCOc1ccc(-c2cc(C(=O)NN)c(=O)[nH]n2)cc1C#N |  |  | 5.24 | 
5 | NNC(=O)c1cc(-c2ccc([N+](=O)[O-])cc2)n[nH]c1=O | Not Active | < 50 |  | 
6 | CC(C)CCOc1ccc(-c2cc(C(=O)NN)c(=O)[nH]n2)cc1C#N |  |  | 4.5 | 
7 | CCOc1ccc(-c2cc(C(=O)NN)c(=O)[nH]n2)cc1C#N |  |  | 2.54 | 
8 | NNC(=O)c1cc(-c2cccc([N+](=O)[O-])c2)n[nH]c1=O | Not Active | < 50 |  | 
9 | CCCCCOc1ccc(-c2cc(C(=O)NN)c(=O)[nH]n2)cc1C#N |  |  | 5.89 | 
10 | CC(C)COc1ccc(-c2cc(C(=O)NN)c(=O)[nH]n2)cc1[N+](=O)[O-] |  |  | 3.65 | 
11 | CC(C)Oc1ccc(-c2cc(C(=O)NN)c(=O)[nH]n2)cc1[N+](=O)[O-] |  |  | 1.92 | 
12 | CC(C)CCOc1ccc(-c2cc(C(=O)O)c(=O)[nH]n2)cc1C#N | Not Active | < 50 |  | 
13 | CC(C)CCOc1ccc(-c2cc(C(=O)NN)c(=O)[nH]n2)cc1[N+](=O)[O-] |  |  | 6.02 | 
14 | CC(C)Oc1ccc(-c2cc(C(=O)NN)c(=O)[nH]n2)cc1C#N |  |  | 1.03 | Active
15 | NNC(=O)c1cc(-c2ccccc2)n[nH]c1=O | Not Active | < 50 |  | 
16 | CC(C)Oc1ccc(-c2cc(C(=O)NN)c(=O)[nH]n2)cc1 | Not Active | < 50 |  | 
17 | CCCOc1ccc(-c2cc(C(=O)NN)c(=O)[nH]n2)cc1C#N |  |  | 3.1 | 
18 | CC(C)COc1ccc(-c2cc(C(=O)NN)c(=O)[nH]n2)cc1 | Not Active | < 50 |  | 
